Laboratory results: ChEMBL document CHEMBL1152894, “Novel CYP17 inhibitors: synthesis, biological evaluation, structure-activity relationships and modelling of methoxy- and hydroxy-substituted methyleneimidazolyl biphenyls” (Eur J Med Chem, 2009)

Key:
[1] = biological target: T1, Steroid 17-alpha-hydroxylase/17,20 lyase (Homo sapiens, UniProt P05093); assay: Inhibition of human CYP17 expressed in Escherichia coli coexpressing NADPH-P450 reductase at 0.2 uM
T1 sequence (P05093 whole entry): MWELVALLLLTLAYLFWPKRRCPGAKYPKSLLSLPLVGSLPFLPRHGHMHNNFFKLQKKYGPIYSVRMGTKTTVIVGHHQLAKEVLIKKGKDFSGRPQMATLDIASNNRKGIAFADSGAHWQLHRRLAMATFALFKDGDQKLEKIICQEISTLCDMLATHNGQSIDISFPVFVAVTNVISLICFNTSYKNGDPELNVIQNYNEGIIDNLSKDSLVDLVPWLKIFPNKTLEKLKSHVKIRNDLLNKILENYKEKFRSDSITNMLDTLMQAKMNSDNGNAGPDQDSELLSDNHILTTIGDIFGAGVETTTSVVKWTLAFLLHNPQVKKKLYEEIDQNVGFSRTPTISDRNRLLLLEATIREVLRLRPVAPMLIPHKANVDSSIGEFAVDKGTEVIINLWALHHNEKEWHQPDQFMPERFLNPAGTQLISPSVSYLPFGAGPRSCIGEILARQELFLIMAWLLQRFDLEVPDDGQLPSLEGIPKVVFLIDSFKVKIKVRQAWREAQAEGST

[2] = biological target: T1, Steroid 17-alpha-hydroxylase/17,20 lyase; assay: Inhibition of human CYP17 expressed in Escherichia coli coexpressing NADPH-P450 reductase at 2 uM
[3] = biological target: T2, Cytochrome P450 11B1, mitochondrial (Homo sapiens, UniProt P15538); assay: Inhibition of recombinant CYP11B1 expressed in expressed in V79MZh11B1 cells; type: cell-based
T2 sequence (P15538 whole entry): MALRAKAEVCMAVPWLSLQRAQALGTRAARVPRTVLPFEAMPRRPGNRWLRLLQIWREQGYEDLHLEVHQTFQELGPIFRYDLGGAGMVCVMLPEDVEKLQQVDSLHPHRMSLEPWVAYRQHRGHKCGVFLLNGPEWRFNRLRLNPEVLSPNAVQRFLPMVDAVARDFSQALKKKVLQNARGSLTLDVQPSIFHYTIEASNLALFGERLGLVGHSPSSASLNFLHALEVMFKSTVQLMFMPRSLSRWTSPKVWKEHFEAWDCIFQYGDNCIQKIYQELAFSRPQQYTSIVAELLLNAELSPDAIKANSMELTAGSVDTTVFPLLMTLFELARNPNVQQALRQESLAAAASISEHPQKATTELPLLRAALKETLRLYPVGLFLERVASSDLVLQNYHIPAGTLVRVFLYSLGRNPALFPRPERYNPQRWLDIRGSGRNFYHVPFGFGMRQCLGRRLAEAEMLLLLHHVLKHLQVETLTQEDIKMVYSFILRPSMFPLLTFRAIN

[4] = biological target: T1, Steroid 17-alpha-hydroxylase/17,20 lyase; assay: Inhibition of human CYP17 expressed in Escherichia coli coexpressing NADPH-P450 reductase
CYP11B1 [5] = biological target: T3, CYP11B1 (Homo sapiens, UniProt P15538); assay: Inhibition of recombinant CYP11B1 expressed in V79MZh11B1 cells at 0.2 uM; type: cell-based; conditions: hamster, V79MZh11B1 cells expressing recombinant CYP11B1
T3 sequence (P15538 whole entry): T2 sequence (P15538 whole entry)

CYP11B1 [6] = biological target: T3, CYP11B1; assay: Inhibition of recombinant CYP11B1 expressed in expressed in V79MZh11B1 cells at 2 uM; type: cell-based; conditions: hamster, V79MZh11B1 cells expressing recombinant CYP11B1
CYP3A4 [7] = biological target: T4, CYP3A4 (Homo sapiens, UniProt P08684); assay: (§1) Inhibition of recombinant CYP3A4 expressed in baculovirus-infected insect microsome at 1 uM; type: ADME; conditions: human
T4 sequence (P08684 whole entry): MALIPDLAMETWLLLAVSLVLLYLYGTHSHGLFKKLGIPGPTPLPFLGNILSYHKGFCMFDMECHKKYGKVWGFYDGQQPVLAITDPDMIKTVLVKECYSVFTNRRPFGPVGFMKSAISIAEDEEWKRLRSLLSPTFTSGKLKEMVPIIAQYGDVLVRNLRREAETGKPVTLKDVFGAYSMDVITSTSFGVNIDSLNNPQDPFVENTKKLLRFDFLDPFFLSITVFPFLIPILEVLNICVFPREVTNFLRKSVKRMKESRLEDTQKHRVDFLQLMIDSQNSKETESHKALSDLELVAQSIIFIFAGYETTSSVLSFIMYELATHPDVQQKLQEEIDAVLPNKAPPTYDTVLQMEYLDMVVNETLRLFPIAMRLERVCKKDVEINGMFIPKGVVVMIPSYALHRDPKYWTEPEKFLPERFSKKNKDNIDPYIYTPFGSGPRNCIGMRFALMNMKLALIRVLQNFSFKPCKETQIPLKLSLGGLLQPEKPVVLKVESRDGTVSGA

CYP3A4 [8] = biological target: T4, CYP3A4; assay: Inhibition of recombinant CYP3A4 expressed in baculovirus-infected insect microsome at 10 uM; type: ADME
[9] = biological target: T1, Steroid 17-alpha-hydroxylase/17,20 lyase; assay: Ratio of ketoconazole to drug against IC50 for human CYP17 expressed in Escherichia coli coexpressing NADPH-P450 reductase
Cytochrome P450 3A4 = Cytochrome P450 3A4 (Homo sapiens, UniProt P08684); assay: as §1; type: ADME
Cytochrome P450 3A4, sequence (P08684 whole entry): as above

| SMILES | inhibition at 0.2 µM [1] | inhibition at 2 µM [2] | IC50 [3] | IC50 [4] | inhibition at 0.2 µM (CYP11B1 [5]) | inhibition at 2 µM (CYP11B1 [6]) | inhibition at 1 µM (CYP3A4 [7]) | inhibition at 10 µM (CYP3A4 [8]) | Ratio IC50 [9] | IC50 (Cytochrome P450 3A4) |
| --- | --- | --- | --- | --- | --- | --- | --- | --- | --- | --- |
| COc1cccc(-c2ccc(C(C)n3ccnc3)cc2)c1 (racemic) | 8% | 59% | – | – | – | – | – | – | – | – |
| C[C@]12CC[C@H](O)CC1=CC[C@@H]1[C@@H]2CC[C@]2(C)C(c3cccnc3)=CC[C@@H]12 [ABIRATERONE] | – | – | 1610 nM | – | – | – | – | – | – | – |
| CCC(c1ccc(-c2cccc(O)c2)cc1)n1ccnc1 (racemic) | 55% | 89% | – | 164 nM | 90% | 95% | 84% | 88% | – | – |
| CCC(c1ccc(-c2ccc(O)c(O)c2)cc1)n1ccnc1 (racemic) | 56% | 91% | – | 152 nM | 38% | 92% | 91% | 99% | – | – |
| CCOc1ccc(-c2ccc(C(CC)n3ccnc3)cc2)cc1 (racemic) | 3% | 25% | – | – | – | – | – | – | – | – |
| CCC(c1ccc(-c2ccc(O)c(C)c2)cc1)n1ccnc1 (racemic) | 45% | 89% | – | 261 nM | 91% | 96% | 93% | 98% | 50 | – |
| CCC(c1ccc(-c2cc(C)c(O)c(C)c2)cc1)n1ccnc1 (racemic) | 28% | 78% | – | 379 nM | 45% | 85% | 94% | 100% | 50 | – |
| CCC(c1ccc(-c2ccc(O)c(Cl)c2)cc1)n1ccnc1 (racemic) | 44% | 89% | – | 217 nM | 89% | 96% | – | 99% | 50 | 91 nM |
| COc1ccc(-c2ccc(C(C)n3ccnc3)cc2)cc1 (racemic) | 9% | 40% | – | – | – | – | – | – | – | – |
| CCC(c1ccc(-c2ccc(O)c(O)c2)cc1F)n1ccnc1 (racemic) | 69% | 95% | – | 52 nM | 51% | 90% | 93% | 100% | – | – |
| CCC(c1ccc(-c2ccc(OC)c(OC)c2)cc1)n1ccnc1 (racemic) | 9% | 58% | – | – | – | – | 70% | 93% | – | – |
| CCC(c1ccc(-c2ccc(OC)cc2)cc1)n1ccnc1 (racemic) | 2% | 36% | – | – | – | – | 73% | 80% | – | – |
| CCC(c1ccc(-c2cccc(OC)c2)cc1)n1ccnc1 (racemic) | 31% | 83% | – | 188 nM | 84% | 96% | 80% | 92% | – | – |
| CCC(c1ccc(-c2ccc(O)cc2)cc1)n1ccnc1 (racemic) | 27% | 80% | – | 231 nM | 89% | 95% | 87% | 91% | – | – |
| CCC(c1ccc(-c2cc(O)cc(O)c2)cc1)n1ccnc1 (racemic) | 48% | 90% | – | 195 nM | 93% | 97% | 90% | 99% | – | – |
| CCC(c1ccc(-c2ccc(O)cc2)cc1F)n1ccnc1 (racemic) | 64% | 94% | – | 90 nM | 89% | 97% | 86% | 91% | – | – |
| CC(=O)N1CCN(c2ccc(OCC3COC(Cn4ccnc4)(c4ccc(Cl)cc4Cl)O3)cc2)CC1 (stereo not given) [KETOCONAZOLE] | – | – | – | – | 61% | 93% | – | – | – | – |
